pEC50, pIC50, pKi: −log10 of the molar value.

The target of test [1] is T1, ER (Homo sapiens, UniProt P03372).
T1 construct: expressed in transfected cells; host or cells: CV-1 cells
The test is described as follows: Co-transfection assay, ER agonist mode. Type of test: cell-based. On the procedure: (§1) CV-1 cells (African green monkey kidney fibroblasts) were cultured in the presence of Dulbecco's Modified Eagle Medium (DMEM) supplemented with 10% charcoal resinstripped fetal bovine serum then transferred to 96-well microtiter plates one day prior to transfection.
(§2) Three to four replicates were used for each sample.
(§3) After 40 hours, the cells were washed with PBS, lysed with a Triton X-100-based buffer and assayed for LUC and β-Gal activities using a luminometer or spectrophotometer, respectively. For each replicate, the normalized response (NR) was calculated as: LUC response/β-Gal rate where β-Gal rate = β-Gal•1x10^-5/β-Gal incubation time.

Test [2] has as its target T1, ER. In words: Co-transfection assay, ER antagonist mode. The format is cell-based. On the procedure: as §1, §2, §3
The target of another test is T2, GR (Homo sapiens, UniProt P04150).
T2 sequence (P04150 1-777): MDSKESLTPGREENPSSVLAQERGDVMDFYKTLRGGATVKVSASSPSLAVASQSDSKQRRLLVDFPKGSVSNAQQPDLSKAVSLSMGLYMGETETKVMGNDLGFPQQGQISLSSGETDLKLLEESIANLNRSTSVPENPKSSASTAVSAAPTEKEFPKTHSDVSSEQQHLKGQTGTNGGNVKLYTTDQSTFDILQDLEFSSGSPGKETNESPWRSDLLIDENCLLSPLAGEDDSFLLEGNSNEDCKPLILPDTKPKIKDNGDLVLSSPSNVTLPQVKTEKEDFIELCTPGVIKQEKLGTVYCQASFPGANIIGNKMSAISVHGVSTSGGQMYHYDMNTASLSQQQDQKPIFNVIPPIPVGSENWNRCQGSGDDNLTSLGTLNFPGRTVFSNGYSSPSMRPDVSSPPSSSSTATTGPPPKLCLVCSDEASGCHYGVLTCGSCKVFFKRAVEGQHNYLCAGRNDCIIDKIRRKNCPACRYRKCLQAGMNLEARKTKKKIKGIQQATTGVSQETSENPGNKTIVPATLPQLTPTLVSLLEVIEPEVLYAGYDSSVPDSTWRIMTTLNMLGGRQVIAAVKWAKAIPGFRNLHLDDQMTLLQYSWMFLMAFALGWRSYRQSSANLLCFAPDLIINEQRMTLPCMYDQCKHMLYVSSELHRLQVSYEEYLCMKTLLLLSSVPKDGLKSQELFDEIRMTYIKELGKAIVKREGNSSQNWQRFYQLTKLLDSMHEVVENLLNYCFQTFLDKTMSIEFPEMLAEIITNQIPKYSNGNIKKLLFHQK
The test is described as follows: cell-based. On the procedure: as §1, §2, §3

Test [3] addresses T3, PR (Homo sapiens, UniProt P06401).
T3 sequence (P06401 1-933): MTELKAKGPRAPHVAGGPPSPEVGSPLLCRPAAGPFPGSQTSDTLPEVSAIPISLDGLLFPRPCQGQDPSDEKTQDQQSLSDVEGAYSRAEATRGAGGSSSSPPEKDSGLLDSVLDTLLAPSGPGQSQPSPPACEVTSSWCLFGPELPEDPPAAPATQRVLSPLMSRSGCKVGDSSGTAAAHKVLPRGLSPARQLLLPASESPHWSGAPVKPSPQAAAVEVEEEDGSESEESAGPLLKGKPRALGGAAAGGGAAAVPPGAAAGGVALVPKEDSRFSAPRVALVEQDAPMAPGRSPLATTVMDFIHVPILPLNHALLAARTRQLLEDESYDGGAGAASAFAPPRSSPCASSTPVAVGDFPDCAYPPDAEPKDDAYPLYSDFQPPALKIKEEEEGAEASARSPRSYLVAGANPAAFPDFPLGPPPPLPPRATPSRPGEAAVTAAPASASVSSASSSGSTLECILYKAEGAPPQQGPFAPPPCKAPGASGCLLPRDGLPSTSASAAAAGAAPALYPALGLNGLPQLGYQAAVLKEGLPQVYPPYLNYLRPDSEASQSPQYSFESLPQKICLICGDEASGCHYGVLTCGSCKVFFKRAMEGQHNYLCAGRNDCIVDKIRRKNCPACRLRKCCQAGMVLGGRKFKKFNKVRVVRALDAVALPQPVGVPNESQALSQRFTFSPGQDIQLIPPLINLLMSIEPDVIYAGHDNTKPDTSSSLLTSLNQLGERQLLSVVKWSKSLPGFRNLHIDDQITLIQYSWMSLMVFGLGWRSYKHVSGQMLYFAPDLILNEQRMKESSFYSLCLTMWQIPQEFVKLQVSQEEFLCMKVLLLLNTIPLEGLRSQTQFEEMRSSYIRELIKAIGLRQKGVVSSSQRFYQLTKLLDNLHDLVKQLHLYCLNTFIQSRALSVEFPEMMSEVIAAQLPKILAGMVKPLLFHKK
The test is described as follows: Co-transfection assay, PR agonist mode. Type of test: cell-based. Further details: expressed in transfected cells; host or cells: CV-1 cells. On the procedure:
as §1, §2, §3

Test [4] has as its target T4, human AR (Homo sapiens, UniProt P10275).
T4 construct: expressed in transfected cells; host or cells: CV-1 cells (African green monkey kidney fibroblasts), transient calcium phosphate transfection
T4 sequence (P10275 1-920): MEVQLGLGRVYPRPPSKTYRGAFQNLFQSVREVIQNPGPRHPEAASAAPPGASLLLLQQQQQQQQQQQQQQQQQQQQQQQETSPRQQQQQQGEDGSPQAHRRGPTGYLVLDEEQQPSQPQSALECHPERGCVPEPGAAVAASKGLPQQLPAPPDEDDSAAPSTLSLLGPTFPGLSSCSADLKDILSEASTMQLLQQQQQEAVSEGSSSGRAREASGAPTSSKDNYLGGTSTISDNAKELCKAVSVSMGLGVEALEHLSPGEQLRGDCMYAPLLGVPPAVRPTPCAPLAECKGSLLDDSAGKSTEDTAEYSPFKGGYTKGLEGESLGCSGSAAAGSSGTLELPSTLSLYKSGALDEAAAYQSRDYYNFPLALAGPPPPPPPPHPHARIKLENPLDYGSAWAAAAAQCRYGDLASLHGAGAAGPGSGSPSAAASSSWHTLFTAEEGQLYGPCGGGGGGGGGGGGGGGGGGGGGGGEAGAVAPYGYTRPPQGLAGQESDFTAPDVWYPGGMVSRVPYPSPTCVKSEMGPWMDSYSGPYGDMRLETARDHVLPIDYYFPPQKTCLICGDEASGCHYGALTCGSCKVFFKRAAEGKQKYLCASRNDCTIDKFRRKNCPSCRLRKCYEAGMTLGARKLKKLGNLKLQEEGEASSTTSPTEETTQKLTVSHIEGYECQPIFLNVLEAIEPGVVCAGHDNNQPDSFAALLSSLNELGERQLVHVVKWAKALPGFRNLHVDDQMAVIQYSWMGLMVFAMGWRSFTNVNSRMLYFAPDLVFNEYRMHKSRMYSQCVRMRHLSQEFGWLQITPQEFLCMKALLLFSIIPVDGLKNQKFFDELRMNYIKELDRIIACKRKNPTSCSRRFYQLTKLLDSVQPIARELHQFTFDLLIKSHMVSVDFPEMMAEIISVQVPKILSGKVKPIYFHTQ
The test is described as follows: cell-based. The format is binding.

In test [5] the target is T4, human AR. In words: cell-based. The format is cell-based.
Excerpt: The co-transfection assay provides a method for identifying functional agonists and partial agonists which mimic, or antagonists which inhibit, the effect of native hormones, and quantifying their activity for responsive IR proteins. In this regard, the co-transfection assay mimics an in vivo system in the laboratory. Importantly, activity in the co-transfection assay correlates very well with known in vivo activity, such that the co-transfection assay functions as a qualitative and quantitative predictor of a tested compounds in vivo pharmacology. See, e.g., T. Berger et al. 41 J. Steroid Biochem. Molec.
as §1
The reporter plasmid, MTV-LUC, contains the cDNA for firefly luciferase (LUC) under control of the mouse mammary tumor virus (MTV) long terminal repeat, a conditional promoter containing an androgen response element. See e.g, Berger et al. supra. In addition, pRS-β-Gal, coding for constitutive expression of E. colβ-galactosidase (β-Gal), was included as an internal control for evaluation of transfection efficiency and compound toxicity.
as §2, §3

For test [6], the target named is T3, PR. The test is described as follows: cell-based.

T1 sequence (P03372 whole entry): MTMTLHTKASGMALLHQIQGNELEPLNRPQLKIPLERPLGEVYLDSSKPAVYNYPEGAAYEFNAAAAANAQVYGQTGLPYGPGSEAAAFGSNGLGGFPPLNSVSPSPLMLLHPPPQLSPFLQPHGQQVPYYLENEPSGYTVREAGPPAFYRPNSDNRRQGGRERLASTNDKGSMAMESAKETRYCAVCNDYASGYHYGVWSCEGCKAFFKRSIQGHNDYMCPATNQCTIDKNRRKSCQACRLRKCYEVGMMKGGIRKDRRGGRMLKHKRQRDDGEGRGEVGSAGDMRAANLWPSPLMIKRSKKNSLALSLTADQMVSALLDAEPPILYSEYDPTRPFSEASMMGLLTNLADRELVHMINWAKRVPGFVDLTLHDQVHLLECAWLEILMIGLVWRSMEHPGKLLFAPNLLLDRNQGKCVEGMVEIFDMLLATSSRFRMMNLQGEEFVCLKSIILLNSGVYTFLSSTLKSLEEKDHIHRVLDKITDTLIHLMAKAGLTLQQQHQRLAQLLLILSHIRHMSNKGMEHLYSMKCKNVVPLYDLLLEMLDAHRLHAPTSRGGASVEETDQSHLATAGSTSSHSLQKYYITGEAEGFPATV

The term pEC50 denotes the negative decadic logarithm of the EC50, by convention in mol/L. A word on the pIC50: it is −log10 of the IC50, conventionally taken in molar units. A high value points to a low IC50. Turning to `Cn1c(=O)cc(C(F)(F)F)c2cc3c(cc21)N1CCCC1(C)CC3` (racemic) [Compound 103, (R/S)-6,7,7a,11-Tetrahydro-1,7a-dimethyl-4-trifluoromethyl-2-pyridono[5,6-g]pyrrolidino[1,2-a]quinoline], the pEC50 at ER [1] and at PR [3] was under 5.00 each time. For the same compound, the pIC50 against ER [2] and on GR was under 5.00 throughout.

A word on the pKi: it is the Ki on a negative log10 scale, so that one unit is a factor of ten. Read a high pKi as a small Ki. For `CC1(C)CCc2cc3c(C(F)(F)F)c(F)c(=O)[nH]c3cc2N1` [Compound 105, 7-Fluoro-1,2,3,4-tetrahydro-2,2-dimethyl-6-trifluoromethyl-8-pyridono[5,6-g]quinoline], the pEC50 on ER [1] and at PR [3] was under 5.00 in each case. The figures for the pIC50 against ER [2] and at GR were 7.47 and under 5.00, respectively. At human AR [4], this compound showed a pKi of 7.59. Moreover, the “AR Antagonist CV-1 Cells Efficacy (%)” value on human AR [5] (% of maximal inhibition, fixed DHT at EC50, na = not active) stood at 31%. On human AR [5] (co-transfection assay, summary of Tables 1-2), the “AR agonist/antagonist profile (in words)” value was “mixed AR agonists/antagonists”. Moreover, at human AR [5] (percent maximal response relative to reference agonist DHT, na = not active), the “AR Agonist CV-1 Cells Efficacy (%)” value was determined as 48%.

On PR [3], `C[C@]12CCC(=O)C[C@@H]1CC[C@@H]1[C@@H]2CC[C@]2(C)[C@@H](O)CC[C@@H]12` [DHT, dihydrotestosterone, reference compound] showed a pEC50 of under 5.00. Also, at PR [6], the pIC50 is 5.74.

Values taken from patent EP0918774B9, “ANDROGEN RECEPTOR MODULATOR COMPOUNDS AND METHODS” (LIGAND PHARMACEUTICALS INCORPORATED, priority 1996, dated 1997).
